# Data published in patent publication US9782429B2, “Formulation having mobilizing activity” (GENTIUM SPA, priority 2000, dated 2017).
# Tested on: white blood cells (WBC)
# Experiment: Effect of G-CSF and/or defibrotide on the amount of white blood cells in murine blood
# Type: in vivo, BALB/c mice
# Details: mice, IP injection, 5 days treatment; FIG. 1
# Description: This experiment was carried out to evaluate the effect of the administration of G-CSF and/or defibrotide (DEF) on the amount of white blood cells (WBC) present in murine blood. BALB/c mice from 6 to 8 weeks old and having a body weight of from 20 to 25 g were subjected to intraperitoneal (IP) injections of G-CSF (5 μg/mouse/day), DEF (1 mg/mouse/day), or a combination of G-CSF (5 μg/mouse/day) and increasing doses of DEF (1, 10, 15 mg/mouse/day). A saline solution, buffered to 0.1%, of […] (PBS/MSA) was administered by IP injection to the control mice which had not received G-CSF and/or DEF. The mice were treated for 5 days and sacrificed after 3 or 5 days of treatment, or 3 days after therapy had ceased. The following symbols were used to represent each group of mice: G-CSF (▪) (n=24), DEF 1 (◯) (n=3), G-CSF+DEF 1 (♦) (n=13), G-CSF+DEF 10 (▴) (n=6), G-CSF+DEF 15 (●) (n=23). The mean white blood cell count in PBS/MSA in the control mice was 2.87±0.2×10^6/ml of blood; the data ate expressed as mean± standard error of the mean (SEM).
substance,measurement,value
defibrotide,amount of white blood cells in circulation in murine blood,does not have a positive influence
